Values quoted from earlier work as cited in patent publication US8668905B2 (priority 2005, dated 2014).

Tested on: drug-resistant SCLC

CC(=O)O[C@H]1C(=O)[C@@]2(C)[C@H]([C@H](OC(=O)c3ccccc3)[C@]3(O)C[C@H](OC(=O)[C@H](O)[C@@H](NC(=O)c4ccccc4)c4ccccc4)C(C)=C1C3(C)C)[C@]1(OC(C)=O)CO[C@@H]1C[C@@H]2O [Taxol, Paclitaxel]
life-threatening toxicity ((Smit, 1998)): 20 % of patients | median survival (drug-resistant SCLC patients (Smit, 1998)): 100 days
